Reference: ChEMBL document CHEMBL1131968, “P'-extended alpha-ketoamide inhibitors of proteasome” (Bioorg Med Chem Lett, 1999)

Experiments:
Format in all cases: subcellular
Proteasome [1] = assay: Inhibitory activity against proteasome
Proteasome [2] = assay: Inhibitory activity against proteasome at 100 nM concentration
Proteasome [3] = assay: Inhibitory activity against proteasome at 10 uM concentration
Proteasome [4] = assay: Inhibitory activity against proteasome at 1 uM concentration

Row | SMILES | Ki (Proteasome [1]) [µM] | further results
1 | NCCCC[C@H](NC(=O)C(CCCCCCCCN1C(=O)c2ccccc2C1=O)C1CCCC1)C(=O)N[C@@H](Cc1ccccc1)C(=O)C(=O)NCCNS(=O)(=O)c1ccccc1 (stereo partly drawn) | 0.022 | 
2 | CC(C)(C)OC(=O)NCCCC[C@H](NC(=O)C(CCCCCCCCN1C(=O)c2ccccc2C1=O)C1CCCC1)C(=O)N[C@@H](Cc1ccccc1)C(=O)C(=O)NCCNS(=O)(=O)c1ccccc1 (stereo partly drawn) |  | inhibition (Proteasome [2]): 48%
3 | CCNC(=O)C(=O)[C@H](Cc1ccccc1)NC(=O)[C@H](CCC/N=C(\N)N[N+](=O)[O-])NC(=O)C(CCCCCCCCN1C(=O)c2ccccc2C1=O)C1CCCC1 (stereo partly drawn) | 0.012 | 
4 | N/C(=N\CCC[C@H](NC(=O)C(CCCCCCCCN1C(=O)c2ccccc2C1=O)C1CCCC1)C(=O)N[C@@H](Cc1ccccc1)C(=O)C(=O)NCCNS(=O)(=O)c1ccccc1)N[N+](=O)[O-] (stereo partly drawn) | 0.0011 | 
5 | CC(C)(C)OC(=O)/N=C(\NCCC[C@H](NC(=O)C(CCCCCCCCN1C(=O)c2ccccc2C1=O)C1CCCC1)C(=O)N[C@@H](Cc1ccccc1)C(=O)C(=O)NCCNS(=O)(=O)c1ccccc1)NC(=O)OC(C)(C)C (stereo partly drawn) |  | inhibition (Proteasome [2]): 34%
6 | O=C(NCCNS(=O)(=O)c1ccccc1)C(=O)[C@H](Cc1ccccc1)NC(=O)[C@H](CCCCNC(=O)c1cnccn1)NC(=O)C(CCCCCCCCN1C(=O)c2ccccc2C1=O)C1CCCC1 (stereo partly drawn) | 0.08 | 
7 | CC(C)(C)OC(=O)NCCNC(=O)C(=O)[C@H](Cc1ccccc1)NC(=O)[C@H](CCC/N=C(\N)N[N+](=O)[O-])NC(=O)C(CCCCCCCCN1C(=O)c2ccccc2C1=O)C1CCCC1 (stereo partly drawn) | 0.0022 | 
8 | CC(C)(C)OC(=O)N[C@@H](Cc1ccccc1)C(=O)C(=O)NCCNS(=O)(=O)c1ccccc1 |  | inhibition (Proteasome [3]): 14%
9 | NCCNC(=O)C(=O)[C@H](Cc1ccccc1)NC(=O)[C@H](CCC/N=C(\N)N[N+](=O)[O-])NC(=O)C(CCCCCCCCN1C(=O)c2ccccc2C1=O)C1CCCC1 (stereo partly drawn) | 0.067 | 
10 | N[C@@H](Cc1ccccc1)C(=O)C(=O)NCCNS(=O)(=O)c1ccccc1 |  | inhibition (Proteasome [3]): 12%
11 | CS(=O)(=O)NCCCC[C@H](NC(=O)C(CCCCCCCCN1C(=O)c2ccccc2C1=O)C1CCCC1)C(=O)N[C@@H](Cc1ccccc1)C(=O)C(=O)NCCNS(=O)(=O)c1ccccc1 (stereo partly drawn) | 0.041 | 
12 | N/C(=N/CCCC(NC(=O)OCc1ccccc1)C(=O)N[C@@H](Cc1ccccc1)C(=O)C(=O)NCCNS(=O)(=O)c1ccccc1)N[N+](=O)[O-] (stereo partly drawn) |  | inhibition (Proteasome [4]): 34%
13 | N=C(N)NCCC[C@H](NC(=O)C(CCCCCCCCN1C(=O)c2ccccc2C1=O)C1CCCC1)C(=O)N[C@@H](Cc1ccccc1)C(=O)C(=O)NCCNS(=O)(=O)c1ccccc1 (stereo partly drawn) |  | inhibition (Proteasome [2]): 31%
